Read-outs that look alike come from different tables or passages of the source.
Assays:
[1] = Phase 1b open-label pharmacokinetic study in healthy pregnant women (single dose data and simulated steady state); assay type: in vivo, human (pregnant women); conditions: for Cmax / AUC(0-t): female, human, in vivo, N = 7; for Cmax / AUC(0-t) / AUCSS / Css, max: pregnant women; for AUC(0-t): read-out: AUC0-24; for AUCSS / Css, max: simulated steady state; for AUCSS: 1 week duration
Experimental: Formulations (e.g., oral dosage forms like those described herein) were used in a Phase 1b open-label study that enrolled eight healthy; pregnant women at 16 to 18 weeks gestation. All subjects received three treatments in sequence. In period one, subjects received two doses of 400 mg with oral dosage forms like those described herein, administered 12 hours apart. In period two, subjects received two doses of 800 mg oral with dosage forms like those described herein, administered 12 hours apart. In period three, subjects were given 250 mg of HPC via intramuscular injection (marketed product Makena®). Blood samples were collected periodically over 24 hours following oral dosing and over 28 days following the IM dose.
Steady state pharmacokinetic parameters for oral and IM dosing regimens were simulated based on single dose data and the Cmax and […] values are shown in the table below.

[2] = cited from earlier work
[3] = Saxton et al. 2004; Greene NEJM; cited from earlier work
[4] = oral 400 mg BID (two doses 12 hours apart)
[5] = oral 800 mg BID (two doses 12 hours apart)

Structure (SMILES): CCCCCC(=O)O[C@]1(C(C)=O)CC[C@H]2[C@@H]3CCC4=CC(=O)CC[C@]4(C)[C@H]3CC[C@@]21C [Example 17HPC, 17-hydroxyprogesterone caproate]
- increase in exposure with dose ([1]; 800 mg dose vs 400 mg dose, oral): more than dose proportional increase in exposure
- Cmax [1, 4]: 21.3 ng/mL
- AUC(0-t) [1, 4]: 156 ng·h/mL
- Cmax [1, 5]: 63.2 ng/mL
- AUC(0-t) [1, 5]: 577 ng·h/mL
- absorption following oral administration ([1]; healthy pregnant women): significant HPC absorption
- AUCSS ([1]; oral 400 mg BID): 1074 ng·h/mL
- AUCSS ([1]; oral 800 mg BID): 4058 ng·h/mL
- Css, max ([1]; oral 400 mg BID): 21.6 ng/mL
- Css, max ([1]; oral 800 mg BID): 71.1 ng/mL
- solubility in water [2]: < 0.02 µg/mL
- oral activity [3]: no oral activity

From patent US11590147B2, “17-hydroxyprogesterone ester-containing oral compositions and related methods” (Lipocine Inc., priority 2015, dated 2023)
